The numbers were not newly measured in patent US5574025A, “Inhibitors of prenyl-protein transferases” (Merck & Co., Inc., priority 1994, dated 1996), which cites them from elsewhere.

In the data set the test system is Ras. Particulars: Hancock et al., Casey et al., Schafer et al.

For `CC[C@H](C)C(=O)O[C@H]1C[C@@H](C)C=C2C=C[C@H](C)[C@H](CC[C@@H]3C[C@@H](O)CC(=O)O3)[C@H]21` [Lovastatin], the “Inhibition of Ras famesylation in vivo” value is “Inhibition of Ras famesylation in vivo has been demonstrated”. Turning to `CC[C@H](C)C(=O)O[C@H]1CCC=C2C=C[C@H](C)[C@H](CC[C@@H]3C[C@@H](O)CC(=O)O3)[C@H]21` [compactin], the “Inhibition of Ras famesylation in vivo” value was “Inhibition of Ras famesylation in vivo has been demonstrated”.
